Measured values as given in paper PMC11323273, “A Multipurpose Metallophore and Its Copper Complexes with Diverse Catalytic Antioxidant Properties to Deal with Metal and Oxidative Stress Disorders: A Combined Experimental, Theoretical, and In Vitro Study” (Inorganic Chemistry, 2024).
Where two headings read alike, the source gives them in different places.

What was measured:
[1] = cited from earlier work
Rat glioma C6 cells = assay: ROS mitigation in cells using DCFH-DA; assay type: cell-based
Experimental: Rat C6 glioma cells were grown in a 25 cm^2 culture flask containing Dulbecco’s modified Eagle medium (DMEM) supplemented with 10% (v/v) fetal bovine serum (FBS) at 37 °C in a 5% CO2 atmosphere.
To evaluate redox homeostasis, the level of ROS was assessed using the redox-sensitive dye 2′,7′-dichlorodihydrofluorescein diacetate (DCFH-DA). Rat C6 glioma cells were seeded at a density of 1 × 10^5 cells/well in a 96-well plate and cultured in high-glucose DMEM supplemented with 10% (v/v) FBS at 37 °C in a 5% CO2 atmosphere. The cells were pretreated with the compounds (25 μmol L^–1) and incubated for 24 h. The cells were washed and subjected to different oxidative stress models for 1 h, including (i) metallic stress via the addition of 25 μmol L^–1 CuCl, (ii) direct addition of a 25 μmol L^–1 hydrogen peroxide solution, (iii) superoxide anion (O2^•–) generated by the xanthine ([…])/xanthine oxidase (0.1 unit/mL) enzymatic system, and (iv) hydroxyl radical (^•OH) generated by the Fenton reaction using 0.4 μmol L^–1 CuCl and 4 μmol L^–1 H2O2. The concentrations refer to the final concentrations of each well. After exposure to the oxidative stress conditions, the cells were washed and incubated with DCFH-DA (10 μmol L^–1) for 45 min. The fluorescence was measured using the model M200 Tecan Infinite microplate reader with excitation and emission wavelengths of 450 and 535 nm, respectively.

[2] = parameters: method as in doi:10.3390/pr10010132; settings: studied under the same conditions; read-out: RSA50; cited from earlier work
[3] = parameters: method as in PMID 4833643; settings: cited from earlier work
[4] = Potentiometric titration: protonation equilibria and species distribution; assay type: physicochemical; settings: 70:30 ethanol/water solution, 25 °C, read-out: log K [H2L^+]/[HL][H^+] (pKa of the amine group)
Experimental: The potentiometric studies were carried out with a Corning 350 digital pH meter fitted with blue-glass and Ag/AgCl reference electrodes calibrated to read −log[H^+] directly, designated as pH. Doubly distilled water in the presence of KMnO4 was used to prepare the solutions. For the ligands, the study was performed in a 70:30 ethanol/water solution, while the copper complexes were studied in water. The electrode was calibrated using the data obtained from the potentiometric titration of a known volume of a standard 0.100 mol L^–1 HCl solution with a standard 0.100 mol L^–1 KOH solution. The ionic strength of the HCl solution was maintained at 0.100 mol L^–1 upon the addition of KCl. […]
The titration curves were processed with BEST7,[86] which has as input file: titrant concentration, an initial value for the number of millimoles of the species under investigation, the volume increments of the titrant added, and the corresponding values of pH measured during titration. The program uses the least-squares method to minimize the differences between the calculated pH values and the experimental ones obtained during the titration, keeping fixed the values of the known equilibrium constants, such as those for the hydrolysis of the metal ion,[87] and varying the values of the constants to be determined, minimizing the error. […]

Q: With `NC(=O)CCN1CCN(CCC(N)=O)CC1.[Cl-].[Cl-].[Cu+2]` [[Cu(BPAP)H2O]Cl2] as the compound, how does the IC50 [1] read?
A: 0.168 ± 0.03 µM

Q: Which “increase of cell fluorescence (ROS level) compared to the control” value (Rat glioma C6 cells; 25 μmol L^–1 CuCl, 1 h) does the source give for `[Cl][Cu]` [Cu(I), CuCl, reference compound] here?
A: 3 fold

Q: For `[Cl][Cu][Cl].c1ccc(CNCc2ccccn2)nc1` [[Cu(bmpa)Cl2]], which EC50 [2] is on record?
A: 1070 µM

Q: For `CC(O)CNCc1ccccn1` (stereo not shown) [HL, 1-(pyridin-2-ylmethylamino)propan-2-ol], which “antioxidant effect in cells exposed to hydroxyl radical” value (Rat glioma C6 cells; pretreatment 25 μmol L^–1, 24 h, 0.4 μmol L^–1 CuCl and 4 μmol L^–1 H2O2 1 h) is on record?
A: HL ∼ 1 > 2

Q: And the “redox status of cells exposed to Cu(I) (DCFH-DA fluorescence)” value (Rat glioma C6 cells; pretreatment 25 μmol L^–1, 24 h, 25 μmol L^–1 CuCl 1 h)?
A: no change in the cell redox status

Q: And the “protection of cells against exogenous H2O2 (redox level)” value (Rat glioma C6 cells; pretreatment 25 μmol L^–1, 24 h, 25 μmol L^–1 H2O2 1 h)?
A: maintaining the redox state at the basal level

Q: What about the “antioxidant protection of cells against superoxide radical anion” value (Rat glioma C6 cells; pretreatment 25 μmol L^–1, 24 h, xanthine/xanthine oxidase 1 h) of the same compound?
A: maintaining the redox state at the basal level

Q: And the “pKa of the pyridine group” value [3]?
A: < 3

Q: And the pKa [4]?
A: 8.11

Q: With `NC(=O)CCNCCNCCC(N)=O.[Cl-].[Cl-].[Cu+2]` [[Cu(BCEN)]Cl2·2H2O] as the compound, how does the IC50 [1] read?
A: 0.179 ± 0.017 µM

Q: Which IC50 [1] does the source give for `[Cl][Cu][Cl]` [CuCl2·2H2O] here?
A: 0.91 ± 0.191 µM

Q: For `c1ccc(CNCc2ccccn2)nc1` [bis(2-pyridylmethyl)amine, reference compound], which pKa ([3]; amine group) is on record?
A: 7.28

Q: Which IC50 [1] does the source give for `NC(=O)CCN1CCCN(CCC(N)=O)CC1.[Cl-].[Cl-].[Cu+2]` [[Cu(BPAH)H2O]Cl2] here?
A: 0.129 ± 0.033 µM
